{"source": "ChEMBL document CHEMBL3886620", "about": "“Substituted imidazopyrazines as Akt kinase inhibitors” (2016)", "key": {"[1]": {"molecular_target": "RAC-alpha serine/threonine-protein kinase (Homo sapiens, UniProt P31749)", "sequence (P31749 whole entry)": "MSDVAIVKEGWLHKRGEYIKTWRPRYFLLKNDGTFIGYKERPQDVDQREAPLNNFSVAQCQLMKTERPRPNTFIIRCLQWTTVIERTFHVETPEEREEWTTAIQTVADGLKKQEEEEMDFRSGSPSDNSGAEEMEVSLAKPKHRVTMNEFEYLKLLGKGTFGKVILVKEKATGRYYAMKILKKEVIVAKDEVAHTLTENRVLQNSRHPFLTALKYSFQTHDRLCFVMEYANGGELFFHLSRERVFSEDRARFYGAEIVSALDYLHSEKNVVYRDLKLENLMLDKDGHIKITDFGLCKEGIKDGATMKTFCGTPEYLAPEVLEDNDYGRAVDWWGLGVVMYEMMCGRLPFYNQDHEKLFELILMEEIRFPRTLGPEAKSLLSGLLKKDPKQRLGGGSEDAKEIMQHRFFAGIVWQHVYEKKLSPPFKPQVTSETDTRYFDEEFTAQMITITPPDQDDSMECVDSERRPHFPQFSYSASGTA", "assay": "(§1) Akt1 TR-FRET assay: His-tagged human recombinant kinase full-length Akt1 expressed in insect cells was purchased form Invitrogen (part number PV 3599). As substrate for the kinase reaction the biotinylated peptide biotin-Ahx-KKLNRTLSFAEPG (C-terminus in amide form) was used which can be purchased e.g. from the company Biosynthan GmbH (Berlin-Buch, Germany). For the assay 50 nl of a 100 fold concentrated solution of the test compound in DMSO was pipetted into a black low volume 384 well microtiter plate (Greiner Bio-One, Frickenhausen, Germany), 2 μl of a solution of Akt1 in assay buffer [50 mM TRIS/HCl pH 7.5, 5 mM MgCl2, 1 mM dithiothreitol, 0.02% (v/v) Triton X-100 (Sigma)] were added and the mixture was incubated for 15 min at 22 °C. to allow prebinding of the test compounds to the enzyme before the start of the kinase reaction. Then the kinase reaction was started by the addition of 3 μl of a solution of adenosine-tri-phosphate (ATP, 16.7 μM=>final conc. in the 5 μl assay volume is 10 μM) and substrate (1.67 μM=>final conc. in the 5 μl assay volume is 1 μM) in assay buffer and the resulting mixture was incubated for a reaction time of 60 min at 22 °C. […]"}, "[2]": {"molecular_target": "RAC-beta serine/threonine-protein kinase (Homo sapiens, UniProt P31751)", "sequence (P31751 whole entry)": "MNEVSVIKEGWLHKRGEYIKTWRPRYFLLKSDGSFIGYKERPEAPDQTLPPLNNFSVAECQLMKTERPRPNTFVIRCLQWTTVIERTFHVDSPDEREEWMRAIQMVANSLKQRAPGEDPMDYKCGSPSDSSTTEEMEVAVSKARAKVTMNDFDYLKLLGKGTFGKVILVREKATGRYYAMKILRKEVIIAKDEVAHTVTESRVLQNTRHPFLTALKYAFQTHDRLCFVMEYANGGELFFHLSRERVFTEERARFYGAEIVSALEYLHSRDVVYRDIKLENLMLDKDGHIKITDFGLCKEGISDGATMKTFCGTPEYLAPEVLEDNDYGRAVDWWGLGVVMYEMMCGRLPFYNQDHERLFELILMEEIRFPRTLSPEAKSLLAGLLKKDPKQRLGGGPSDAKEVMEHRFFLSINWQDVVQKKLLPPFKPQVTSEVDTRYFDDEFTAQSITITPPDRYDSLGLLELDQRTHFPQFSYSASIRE", "assay": "as §1, with “Akt2 TR-FRET” for “Akt1 TR-FRET”, “full-length Akt2” for “full-length Akt1”, “cells and activated by PDK1” for “cells”, “purchased from” for “purchased form”, “PV 3975).” for “PV 3599).”, “of Akt2” for “of Akt1”"}}, "data": [{"smiles": "CCOC(=O)c1cn2c(-c3ccccc3)c(-c3ccc(C4(N)CCC4)cc3)nc2cn1", "values": [{"measurement": "IC50", "setting": "[1]", "value": 100, "unit": "nM"}, {"measurement": "IC50", "setting": "[2]", "value": 130, "unit": "nM"}]}]}
